According to patent US20220081435A1, “ANDROGEN RECEPTOR PROTEIN DEGRADERS” (THE REGENTS OF THE UNIVERSITY OF MICHIGAN, priority 2019, published 2022):
Like-named read-outs stand apart in the source and are kept apart here.

Target: T1, AR protein (Homo sapiens, UniProt P10275, T878A)
T1 construct: The percent AR protein degradation induced by these compounds at various concentrations in LNCaP cells; host or cells: LNCaP
T1 sequence (P10275 1-920 T878A): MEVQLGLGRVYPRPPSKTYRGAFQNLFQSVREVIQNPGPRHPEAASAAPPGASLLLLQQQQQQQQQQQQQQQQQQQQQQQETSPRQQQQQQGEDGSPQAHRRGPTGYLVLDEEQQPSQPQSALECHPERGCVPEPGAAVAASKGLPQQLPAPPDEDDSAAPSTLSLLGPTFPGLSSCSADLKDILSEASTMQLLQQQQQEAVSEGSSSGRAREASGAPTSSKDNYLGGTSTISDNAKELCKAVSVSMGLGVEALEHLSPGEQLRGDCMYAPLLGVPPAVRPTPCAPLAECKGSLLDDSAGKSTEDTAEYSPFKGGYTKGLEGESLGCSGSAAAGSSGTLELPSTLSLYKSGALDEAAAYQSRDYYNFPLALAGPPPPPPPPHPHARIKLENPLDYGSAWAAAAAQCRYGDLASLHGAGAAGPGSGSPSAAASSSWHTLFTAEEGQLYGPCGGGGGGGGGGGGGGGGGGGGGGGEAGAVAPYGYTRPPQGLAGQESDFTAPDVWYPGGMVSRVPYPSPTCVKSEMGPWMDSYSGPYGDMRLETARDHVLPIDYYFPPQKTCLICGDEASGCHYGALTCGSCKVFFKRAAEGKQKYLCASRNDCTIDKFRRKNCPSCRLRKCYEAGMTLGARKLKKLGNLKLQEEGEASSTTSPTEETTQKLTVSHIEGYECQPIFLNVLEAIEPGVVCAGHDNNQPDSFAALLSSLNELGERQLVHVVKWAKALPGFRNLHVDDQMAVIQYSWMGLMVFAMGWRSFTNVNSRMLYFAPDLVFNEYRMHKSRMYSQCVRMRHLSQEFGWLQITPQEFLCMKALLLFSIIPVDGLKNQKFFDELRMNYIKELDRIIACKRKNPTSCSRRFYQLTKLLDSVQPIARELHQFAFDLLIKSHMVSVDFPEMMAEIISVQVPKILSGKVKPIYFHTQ
Assay: AR protein degradation in LNCaP cells (Western blotting)
Type: cell-based
Settings: for Dmax at 0.1 µM / Dmax at 1 µM / Dmax at 10 µM / AR degradation (Western blotting, dose-dependent) / Dmax at 0.01 µM: LNCaP; for Dmax at 0.1 µM / Dmax at 1 µM / Dmax at 10 µM: read-out: % AR protein degradation in LNCaP Cells
Method: Cell lines and Cell Culture: All the LNCaP, VCaP and 22RV1 cells used were purchased from American Type Culture Collection (ATCC). […] All of the cells were supplemented with 10% fetal bovine serum (Invitrogen) at 37° C. in a humidified 5% CO2 incubator.
Western Blotting. Treated cells were lysed by RIPA buffer supplemented with protease and phosphatase inhibitors. […] Software ImageJ was used to quantify the percentage of AR degradation. The net protein bands and loading controls are calculated by deducting the background from the inverted band value. The final relative quantification values are the ratio of net band to net loading control.

[1] = 0.1 μM, treatment time 6 h, average of three independent experiments
[2] = 1 μM, treatment time 6 h, average of three independent experiments
[3] = 10 μM, treatment time 6 h, average of three independent experiments
[4] = 0.01 μM, treatment time 6 h, average of three independent experiments

Compound | Dmax at 0.1 µM [1] | Dmax at 1 µM [2] | Dmax at 10 µM [3] | Dmax at 0.01 µM [4] | further results
Cc1ncsc1-c1ccc(CNC(=O)C2C[C@@H](O)CN2C(=O)[C@@H](NC(=O)CCCCCCNC(=O)c2ccc(N3C(=S)N(c4ccc(C#N)c(C(F)(F)F)c4)C(=O)C3(C)C)cc2F)C(C)(C)C)cc1 (stereo partly drawn) [Compound 12, (4R)-1-((S)-2-(7-(4-(3-(4-Cyano-3-(trifluoromethyl)phenyl)-5,5-dimethyl-4-oxo-2-thioxoimidazolidin-1-yl)-2-fluorobenzamido)heptanamido)-3,3-dimethylbutanoyl)-4-hydroxy-N-(4-(4-methylthiazol-5-yl)benzyl)pyrrolidine-2-carboxamide] | 54% | 84% | 64% |  | 
Cc1ncsc1-c1ccc([C@H](CC(=O)N2CCC(N3CCC(C#Cc4ccc(C(=O)N[C@H]5C(C)(C)[C@H](Oc6ccc(C#N)c(Cl)c6)C5(C)C)cc4)CC3)CC2)NC(=O)[C@@H]2C[C@@H](O)CN2C(=O)[C@@H](NC(=O)C2(C#N)CC2)C(C)(C)C)cc1 [Compound 35, (2S,4R)—N—((S)-3-(4-((4-(((1r,3r)-3-(3-Chloro-4-cyanophenoxy)-2,2,4,4-tetramethyl-cyclobutyl)carbamoyl)phenyl)ethynyl)-[1,4′-bipiperidin]-1′-yl)-1-(4-(4-methylthiazol-5-yl)phenyl)-3-oxopropyl)-1-((S)-2-(1-cyanocyclopropane-1-carboxamido)-3,3-dimethylbutanoyl)-4-hydroxypyrrolidine-2-carboxamide] |  |  |  |  | % AR protein degradation in LNCaP Cells [4]: 76%; % AR protein degradation in LNCaP Cells [1]: 99%; % AR protein degradation in LNCaP Cells [2]: 100%; AR degradation (Western blotting, dose-dependent) (at 10 nM): partial AR degradation; AR degradation (Western blotting, dose-dependent) (at both 100 nM and 1 μM): essentially complete AR degradation
Cc1ncsc1-c1ccc([C@H](C)NC(=O)C2C[C@@H](O)CN2C(=O)[C@@H](NC(=O)CN2CCN(c3ccc(C#Cc4ccc(N5C(=S)N(c6ccc(C#N)c(C(F)(F)F)c6)C(=O)C5(C)C)cc4)cn3)CC2)C(C)(C)C)cc1 (stereo partly drawn) [Compound 24, (4R)-1-((S)-2-(2-(4-(5-((4-(3-(4-Cyano-3-(trifluoromethyl)phenyl)-5,5-dimethyl-4-oxo-2-thioxoimidazolidin-1-yl)phenyl)ethynyl)pyridin-2-yl)piperazin-1-yl)acetamido)-3,3-dimethylbutanoyl)-4-hydroxy-N—((S)-1-(4-(4-methylthiazol-5-yl)phenyl)ethyl)pyrrolidine-2-carboxamide] | 3% | 31% | 28% |  | 
Cc1ncsc1-c1ccc([C@H](C)NC(=O)C2C[C@@H](O)CN2C(=O)[C@@H](NC(=O)CCCN2CCN(c3ccc(C#Cc4ccc(N5C(=S)N(c6ccc(C#N)c(C(F)(F)F)c6)C(=O)C5(C)C)cc4)cn3)CC2)C(C)(C)C)cc1 (stereo partly drawn) [Compound 21, (4R)-1-((S)-2-(4-(4-(5-((4-(3-(4-Cyano-3-(trifluoromethyl)phenyl)-5,5-dimethyl-4-oxo-2-thioxoimidazolidin-1-yl)phenyl)ethynyl)pyridin-2-yl)piperazin-1-yl)butanamido)-3,3-dimethylbutanoyl)-4-hydroxy-N—((S)-1-(4-(4-methylthiazol-5-yl)phenyl)ethyl)pyrrolidine-2-carboxamide] | 61% | 92% |  | 37% | 
Cc1cc([C@H](C(=O)N2C[C@H](O)C[C@H]2C(=O)N[C@@H](CC(=O)N2CCC(N3CCC(C#Cc4ccc(N5C(=S)N(c6cnc(C#N)c(C(F)(F)F)c6)C(=O)C56CCC6)cc4)CC3)CC2)c2ccc(-c3scnc3C)cc2)C(C)C)on1 [Compound 30, (2S,4R)—N—((S)-3-(4-((4-(7-(6-Cyano-5-(trifluoromethyl)pyridin-3-yl)-8-oxo-6-thioxo-5,7-diazaspiro[3.4]octan-5-yl)phenyl)ethynyl)-[1,4′-bipiperidin]-1′-yl)-1-(4-(4-methylthiazol-5-yl)phenyl)-3-oxopropyl)-4-hydroxy-1-((R)-3-methyl-2-(3-methylisoxazol-5-yl)butanoyl)pyrrolidine-2-carboxamide] | 80% | 95% |  | 38% | 
Cc1ncsc1-c1ccc([C@H](C)NC(=O)C2C[C@@H](O)CN2C(=O)[C@@H](NC(=O)CCN2CCN(c3ccc(C#Cc4ccc(N5C(=S)N(c6ccc(C#N)c(C(F)(F)F)c6)C(=O)C5(C)C)cc4)cn3)CC2)C(C)(C)C)cc1 (stereo partly drawn) [Compound 23, (4R)-1-((S)-2-(3-(4-(5-((4-(3-(4-Cyano-3-(trifluoromethyl)phenyl)-5,5-dimethyl-4-oxo-2-thioxoimidazolidin-1-yl)phenyl)ethynyl)pyridin-2-yl)piperazin-1-yl)propanamido)-3,3-dimethylbutanoyl)-4-hydroxy-N—((S)-1-(4-(4-methylthiazol-5-yl)phenyl)ethyl)pyrrolidine-2-carboxamide] | 51% | 78% |  | 34% | 
Cc1cc([C@H](C(=O)N2C[C@H](O)C[C@H]2C(=O)N[C@@H](CC(=O)N2CCN(c3ccc(C#Cc4ccc(C(=O)N[C@H]5C(C)(C)[C@H](Oc6ccc(C#N)c(Cl)c6)C5(C)C)cc4)cn3)CC2)c2ccc(-c3scnc3C)cc2)C(C)C)on1 [Compound 28, (2S,4R)—N—((S)-3-(4-(5-((4-(((1r,3r)-3-(3-Chloro-4-cyanophenoxy)-2,2,4,4-tetramethylcyclobutyl)carbamoyl)phenyl)ethynyl)pyridin-2-yl)piperazin-1-yl)-1-(4-(4-methylthiazol-5-yl)phenyl)-3-oxopropyl)-4-hydroxy-1-((R)-3-methyl-2-(3-methylisoxazol-5-yl)butanoyl)pyrrolidine-2-carboxamide] |  |  |  |  | % AR protein degradation in LNCaP Cells [4]: 22%; % AR protein degradation in LNCaP Cells [1]: 72%; % AR protein degradation in LNCaP Cells [2]: 93%
Cc1ncsc1-c1ccc(CNC(=O)C2C[C@@H](O)CN2C(=O)[C@@H](NC(=O)CCCCCCCCCCCNC(=O)c2ccc(N3C(=S)N(c4ccc(C#N)c(C(F)(F)F)c4)C(=O)C3(C)C)cc2F)C(C)(C)C)cc1 (stereo partly drawn) [Compound 17, (4R)-1-((S)-2-(12-(4-(3-(4-Cyano-3-(trifluoromethyl)phenyl)-5,5-dimethyl-4-oxo-2-thioxoimidazolidin-1-yl)-2-fluorobenzamido)dodecanamido)-3,3-dimethylbutanoyl)-4-hydroxy-N-(4-(4-methylthiazol-5-yl)benzyl)pyrrolidine-2-carboxamide] | 30% | 69% | 75% |  | 
Cc1ncsc1-c1ccc(CNC(=O)C2C[C@@H](O)CN2C(=O)[C@@H](NC(=O)CCCCNC(=O)c2ccc(N3C(=S)N(c4ccc(C#N)c(C(F)(F)F)c4)C(=O)C3(C)C)cc2F)C(C)(C)C)cc1 (stereo partly drawn) [Compound 10, (4R)-1-((S)-2-(5-(4-(3-(4-Cyano-3-(trifluoromethyl)phenyl)-5,5-dimethyl-4-oxo-2-thioxoimidazolidin-1-yl)-2-fluorobenzamido)pentanamido)-3,3-dimethylbutanoyl)-4-hydroxy-N-(4-(4-methylthiazol-5-yl)benzyl)pyrrolidine-2-carboxamide] |  |  |  |  | Dmax at 0.1 µM (6 h): 16%; Dmax at 1 µM (6 h): 20%; Dmax at 10 µM (6 h): 25%
